Laboratory results reported in patent US11214803B2, “Modulators of YAP1 expression” (Ionis Pharmaceuticals, Inc., priority 2019, dated 2022).
Strand notation (5' to 3'): a small letter for the sugar, then the base; units joined by * are phosphorothioate-linked, units joined directly phosphodiester-linked; [ ] holds rarer units or linkages, { } end groups; capitals alone tell only the bases. k = constrained ethyl (cEt); [5mC] = 5-methylcytosine; d = 2'-deoxy (DNA)

Tests used:
Yap1 mRNA [1] = assay: Dose-dependent inhibition of human Yap1 in A-431 cells (Example 6, 5,000 cells per well, RTS4814); format: cell-based; settings: Table 54, A-431 cells
Outline: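 A-431 cells (5,000/well) took up oligonucleotides by free uptake at various doses for about 48 h. Yap1 mRNA was measured by RT-PCR (RTS4814), normalised to RIBOGREEN total RNA and expressed as % untreated control; IC50 by linear regression on a log/linear plot.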

[2] = Tolerability in Balb/c mice, plasma chemistry markers (Example 11); format: in vivo; settings: 50 mg/kg subcutaneously twice a week for four weeks
Method: (§1) Balb/c mice were treated with modified oligonucleotides selected from studies described above and evaluated for changes in the levels of various plasma chemistry markers.
(§2) Groups of male Balb/c mice at 4-6 weeks of age (obtained from Taconic) were injected subcutaneously twice a week for four weeks (for a total of 8 treatments) with 50 mg/kg of modified oligonucleotides. One group of male Balb/c mice was injected with PBS. Mice were euthanized on day 26 post start of treatment (24 hours following the final administration).

[3] = Tolerability in Balb/c mice, body and organ weights (Example 11); format: in vivo; settings: 50 mg/kg subcutaneously twice a week for four weeks, end of study
Method: as §2
(§3) Body weights of Balb/c mice were measured at the end of the study, and the average body weight for each group is presented in the table below. Modified oligonucleotides that caused any changes in organ weights outside the expected range for modified oligonucleotides were excluded from further studies.

Yap1 mRNA [4] = assay: Dose-dependent inhibition of human Yap1 in A-431 cells (Example 7, 10,000 cells per well, RTS36584); format: cell-based; settings: free uptake
Outline: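 Yap1 mRNA was expressed as percent of untreated control after normalization to total RNA (RIBOGREEN), and IC50 was derived by log/linear linear regression. The read-out used primer-probe set RTS36584 roughly 48 hours after free-uptake dosing of oligonucleotides into A-431 cells (10,000 cells/well).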

[5] = Tolerability in Balb/c mice, plasma chemistry markers (Example 12); format: in vivo; settings: 50 mg/kg subcutaneously twice a week for four weeks
Method: as §1
as §2, with “6-7” for “4-6”

[6] = Tolerability in Balb/c mice, body and organ weights (Example 12); format: in vivo; settings: male Balb/c mice, 50 mg/kg s.c. twice a week for four weeks (8 treatments), end of study (day 26)
Method: as §2, with “6-7” for “4-6”
as §3

Yap1 mRNA [7] = assay: Dose-dependent inhibition of human Yap1 in SNU-449 cells (Example 9, RTS36584); format: cell-based; settings: free uptake; for % UTC (Yap1 mRNA): approximately 48 hours
Outline: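 Read-out was Yap1 mRNA (primer-probe RTS36584) normalised to total RNA by RIBOGREEN, given as % of untreated cells, with IC50 fitted by linear regression of log/linear data. Oligonucleotides were dosed by free uptake to SNU-449 cells, 10,000/well, for ~48 h.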

[8] = Table 56, 15.6 nM, A-431 cells 10,000 cells per well, 48 hours
[9] = Table 56, 62.5 nM, A-431 cells 10,000 cells per well, 48 hours
[10] = Table 56, 4000.00 nM, A-431 cells 10,000 cells per well, 48 hours
[11] = Table 56, A-431 cells 10,000 cells per well
[12] = 15.6 nM, A-431 cells, 10,000 cells per well, approximately 48 hours
[13] = 62.5 nM, A-431 cells, 10,000 cells per well, approximately 48 hours
[14] = 4000.00 nM, A-431 cells, 10,000 cells per well, approximately 48 hours
[15] = A-431 cells, approximately 48 hours, linear regression on log/linear plot
[16] = Table 61, 15.6 nM, A-431 cells 10,000 cells per well, 48 hours
[17] = Table 61, 62.5 nM, A-431 cells 10,000 cells per well, 48 hours
[18] = Table 61, 4000.00 nM, A-431 cells 10,000 cells per well, 48 hours
[19] = Table 61, A-431 cells 10,000 cells per well
[20] = Table 59, 15.6 nM, A-431 cells 10,000 cells per well, 48 hours
[21] = Table 59, 62.5 nM, A-431 cells 10,000 cells per well, 48 hours
[22] = Table 59, 4000.00 nM, A-431 cells 10,000 cells per well, 48 hours
[23] = Table 59, A-431 cells 10,000 cells per well

716502 (antisense k[5mC]*kA*k[5mC]*dA*dG*dT*dG*dA*dT*dT*dG*d[5mC]*dA*kT*kT*kT) [compound 716502]
IC50 (Yap1 mRNA [1]; Yap1 mRNA, linear regression on a log/linear plot): 800 nM
% UTC 148 nM (Yap1 mRNA [1]; free uptake, 148 nM, approximately 48 hours, RTS4814): 73 % UTC
% UTC 444 nM (Yap1 mRNA [1]; free uptake, 444 nM, approximately 48 hours, RTS4814): 57 % UTC
% UTC 1333 nM (Yap1 mRNA [1]; free uptake, 1333 nM, approximately 48 hours, RTS4814): 45 % UTC
% UTC 4000 nM (Yap1 mRNA [1]; free uptake, 4000 nM, approximately 48 hours, RTS4814): 30 % UTC
ALT [2]: 2920 U/L
AST [2]: 1329 U/L
BUN [2]: 17 mg/dL
TBIL [2]: 0.27 mg/dL
Kidney weight [3]: 0.42 g
Liver weight [3]: 2.18 g
Spleen weight [3]: 0.10 g
body weight [3]: 23 g

958375 (antisense kA*kA*kA*dG*d[5mC]*d[5mC]*dT*dT*dA*dG*dA*dG*dT*k[5mC]*kA*kA) [compound 958375]
Yap1 mRNA, % UTC (Yap1 mRNA [4]; [8]): 74 % UTC
Yap1 mRNA, % UTC (Yap1 mRNA [4]; [9]): 35 % UTC
Yap1 mRNA, % UTC (Yap1 mRNA [4]; [10]): 5 % UTC
IC50 (Yap1 mRNA [4]; [11]): 40 nM
ALT [5]: 2736 U/L
AST [5]: 3013 U/L
BUN [5]: 22 mg/dL
TBIL [5]: 0.43 mg/dL
Kidney weight [6]: 0.39 g
Liver weight [6]: 2.00 g
Spleen weight [6]: 0.12 g
body weight [6]: 23 g

958554 (kA*kA*k[5mC]*d[5mC]*dA*dT*dT*dA*dT*dT*dA*d[5mC]*dT*k[5mC]*k[5mC]*kT; antisense) [compound 958554]
Yap1 mRNA, % UTC (Yap1 mRNA [4]; Table 60, 15.6 nM, A-431 cells 10,000 cells per well, 48 hours): 70 % UTC
Yap1 mRNA, % UTC (Yap1 mRNA [4]; Table 60, 62.5 nM, A-431 cells 10,000 cells per well, 48 hours): 34 % UTC
Yap1 mRNA, % UTC (Yap1 mRNA [4]; Table 60, 4000.00 nM, A-431 cells 10,000 cells per well, 48 hours): 4 % UTC
IC50 (Yap1 mRNA [4]; Table 60, A-431 cells 10,000 cells per well): 30 nM
ALT [5]: 583 U/L
AST [5]: 1051 U/L
BUN [5]: 17 mg/dL
TBIL [5]: 0.28 mg/dL
Kidney weight [6]: 0.28 g
Liver weight [6]: 1.05 g
Spleen weight [6]: 0.15 g
body weight [6]: 22 g

958540 (kA*kT*kT*d[5mC]*dT*dA*dT*d[5mC]*d[5mC]*dA*dG*dG*dG*kT*k[5mC]*kA; antisense) [compound 958540]
Yap1 mRNA, % UTC (Yap1 mRNA [4]; [12]): 62 % UTC
Yap1 mRNA, % UTC (Yap1 mRNA [4]; [13]): 28 % UTC
Yap1 mRNA, % UTC (Yap1 mRNA [4]; [14]): 8 % UTC
IC50 (Yap1 mRNA [4]; [15]): 20 nM
ALT [5]: 4127 U/L
AST [5]: 3940 U/L
BUN [5]: 25 mg/dL
TBIL [5]: 0.44 mg/dL
Kidney weight [6]: 0.33 g
Liver weight [6]: 1.53 g
Spleen weight [6]: 0.09 g
body weight [6]: 19 g

958454 (antisense kG*kG*kA*dA*dT*dG*dA*dG*d[5mC]*dT*d[5mC]*dG*dA*kA*k[5mC]*kA) [compound 958454]
Yap1 mRNA, % UTC (Yap1 mRNA [4]; [16]): 72 % UTC
Yap1 mRNA, % UTC (Yap1 mRNA [4]; [17]): 40 % UTC
Yap1 mRNA, % UTC (Yap1 mRNA [4]; [18]): 4 % UTC
IC50 (Yap1 mRNA [4]; [19]): 40 nM
ALT [5]: 1183 U/L
AST [5]: 2162 U/L
BUN [5]: 45 mg/dL
TBIL [5]: 6.53 mg/dL
Kidney weight [6]: 0.25 g
Liver weight [6]: 0.68 g
Spleen weight [6]: 0.03 g
body weight [6]: 14 g

958729 (kG*kT*k[5mC]*dA*dG*dT*dT*dA*dT*d[5mC]*d[5mC]*dT*dA*kT*k[5mC]*kT; antisense) [compound 958729]
Yap1 mRNA, % UTC (Yap1 mRNA [4]; [16]): 73 % UTC
Yap1 mRNA, % UTC (Yap1 mRNA [4]; [17]): 44 % UTC
Yap1 mRNA, % UTC (Yap1 mRNA [4]; [18]): 4 % UTC
IC50 (Yap1 mRNA [4]; [19]): 50 nM
ALT [5]: 4368 U/L
AST [5]: 4503 U/L
BUN [5]: 30 mg/dL
TBIL [5]: 2.15 mg/dL
Kidney weight [6]: 0.24 g
Liver weight [6]: 1.32 g
Spleen weight [6]: 0.05 g
body weight [6]: 15 g

958553 (k[5mC]*k[5mC]*kA*dT*dT*dA*dT*dT*dA*d[5mC]*dT*d[5mC]*d[5mC]*kT*kG*kT; antisense) [compound 958553]
Yap1 mRNA, % UTC (Yap1 mRNA [4]; [20]): 68 % UTC
Yap1 mRNA, % UTC (Yap1 mRNA [4]; [21]): 23 % UTC
Yap1 mRNA, % UTC (Yap1 mRNA [4]; [22]): 5 % UTC
IC50 (Yap1 mRNA [4]; [23]): 30 nM
ALT [5]: 174 U/L
AST [5]: 227 U/L
BUN [5]: 29 mg/dL
TBIL [5]: 0.20 mg/dL
Kidney weight [6]: 0.29 g
Liver weight [6]: 1.01 g
Spleen weight [6]: 0.11 g
body weight [6]: 21 g

958590 (kA*kG*kG*dT*dA*dT*dA*dA*d[5mC]*dT*dG*dG*dG*k[5mC]*kA*kA) [compound 958590]
Yap1 mRNA, % UTC (Yap1 mRNA [4]; [12]): 71 % UTC
Yap1 mRNA, % UTC (Yap1 mRNA [4]; [13]): 33 % UTC
Yap1 mRNA, % UTC (Yap1 mRNA [4]; [14]): 4 % UTC
IC50 (Yap1 mRNA [4]; [15]): 30 nM
% UTC (Yap1 mRNA) (Yap1 mRNA [7]; 31.3 nM): 69 % UTC
% UTC (Yap1 mRNA) (Yap1 mRNA [7]; 125.0 nM): 52 % UTC
% UTC (Yap1 mRNA) (Yap1 mRNA [7]; 500.0 nM): 29 % UTC
% UTC (Yap1 mRNA) (Yap1 mRNA [7]; 2000.00 nM): 12 % UTC
IC50 (Yap1 mRNA [7]; linear regression on a log/linear plot): 100 nM
ALT [5]: 374 U/L
AST [5]: 360 U/L
BUN [5]: 25 mg/dL
TBIL [5]: 0.16 mg/dL
Kidney weight [6]: 0.40 g
Liver weight [6]: 1.76 g
Spleen weight [6]: 0.13 g
body weight [6]: 25 g

958721 (kG*kT*kA*dG*dT*dA*dT*dA*dA*dT*dG*dA*dG*kT*kT*kA; antisense) [compound 958721]
Yap1 mRNA, % UTC (Yap1 mRNA [4]; [8]): 72 % UTC
Yap1 mRNA, % UTC (Yap1 mRNA [4]; [9]): 32 % UTC
Yap1 mRNA, % UTC (Yap1 mRNA [4]; [10]): 3 % UTC
IC50 (Yap1 mRNA [4]; [11]): 30 nM
ALT [5]: 57 U/L
AST [5]: 114 U/L
BUN [5]: 28 mg/dL
TBIL [5]: 0.17 mg/dL
Kidney weight [6]: 0.33 g
Liver weight [6]: 1.45 g
Spleen weight [6]: 0.12 g
body weight [6]: 24 g

958498 (kG*kA*kG*dT*dA*dT*dG*dT*dG*dG*d[5mC]*dA*dA*kT*kA*kA; antisense) [compound 958498]
Yap1 mRNA, % UTC (Yap1 mRNA [4]; [20]): 70 % UTC
Yap1 mRNA, % UTC (Yap1 mRNA [4]; [21]): 21 % UTC
Yap1 mRNA, % UTC (Yap1 mRNA [4]; [22]): 2 % UTC
IC50 (Yap1 mRNA [4]; [23]): 20 nM
ALT [5]: 1441 U/L
AST [5]: 3197 U/L
BUN [5]: 12 mg/dL
TBIL [5]: 0.74 mg/dL
Kidney weight [6]: 0.45 g
Liver weight [6]: 1.51 g
Spleen weight [6]: 0.19 g
body weight [6]: 20 g

958725 (kG*kT*k[5mC]*dA*dG*dT*dT*dA*dT*d[5mC]*d[5mC]*dT*dA*kT*k[5mC]*k[5mC]; antisense) [compound 958725]
Yap1 mRNA, % UTC (Yap1 mRNA [4]; [12]): 65 % UTC
Yap1 mRNA, % UTC (Yap1 mRNA [4]; [13]): 36 % UTC
Yap1 mRNA, % UTC (Yap1 mRNA [4]; [14]): 1 % UTC
IC50 (Yap1 mRNA [4]; [15]): 30 nM
ALT [5]: 3758 U/L
AST [5]: 3758 U/L
BUN [5]: 31 mg/dL
TBIL [5]: 0.91 mg/dL
Kidney weight [6]: 0.21 g
Liver weight [6]: 1.23 g
Spleen weight [6]: 0.04 g
body weight [6]: 15 g
